Like-named read-outs stand apart in the source and are kept apart here.
Experiments:
A549 cells = test: MTT anti-proliferative assay on A549 cells; type: cell-based, human; settings: mean ± SD, three experiments
Procedure: (§1) The anti-proliferative activity of compounds was determined by MTT (3-[4,5-dimethylthiazole-2-yl]-2,5-diphenyltetrazolium bromide) assay on MCF-7 and A549 cell lines, respectively. Cells were purchased from the Institute of Basic Medical Science, Chinese Academy of Medical Science (Beijing, China). Cells were maintained in RPMI-1640 with 10% fetal bovine serum (FBS) and 1% Penicillin-Streptomycin Solution (PS) and cultured at 37 °C in a humidified atmosphere containing 5% CO2. Compounds to be evaluated were dissolved in DMSO (dimethyl sulfoxide), diluted in RPMI-1640, and stored at −20 °C before use. Cells were seeded in 96-well plates at a density of 5000 cells/well (200 μL) and incubated overnight. Culture medium was replaced with fresh RPMI (Roswell Park Memorial Institute)-1640 containing compounds in different concentrations (100 μM–50 μM–25 μM–12.5 μM–6.25 μM–3.125 μM). Then, cells were incubated in a 5% CO2 incubator for 48 h. The 20 μL MTT solution (5 mg/mL) was added to each well and incubated at 37 °C. After 4 h, the medium was removed and formazan crystals were dissolved in 100 μL DMSO. Absorbance was measured at a wavelength of 490 nm using Synergy H1 (BioTek Instruments, Inc., Winooski, VT, USA). IC50 values were calculated by GraphPad Prism 5 (GraphPad Software, Inc., San Diego, CA, USA).

MCF-7 cells = test: MTT anti-proliferative assay on MCF-7 cells; type: cell-based, human
Procedure: as §1

human Hsp90α = target: T1, human Hsp90α (Homo sapiens, UniProt P07900); test: Fluorescence polarization (FP) competitive binding assay, Hsp90α N-Terminal Domain Assay Kit; settings: FITC-labeled geldanamycin competition, mean ± SD, three experiments
T1 construct: FP assay using Hsp90α N-Terminal Domain Assay Kit (BPS Bioscience, Catalog #50293, CA, USA); purchased BPS Bioscience 50293
Procedure: In brief, the Hsp90 assay buffer (15 μL), 40 mM dithiothreitol (DTT) (5 μL), 2 mg/mL BSA (5 μL), and H2O (40 μL) were added to the plate. To each well, 100 nM fluorescein isothiocyanate (FITC)-labeled geldanamycin (5 μL) and diluted compounds in different concentrations (0.5, 5, 50, 500 μM, 10 μL) were added in an orderly manner. The reactions were initiated by adding 20 μL of Hsp90α (17 ng/μL). […] The data were analyzed using GraphPad Prism 5 (GraphPad Software, Inc.).

Her2 = test: Western blotting, Her2 expression in MCF-7 cells; type: cell-based, human; settings: 24 h
Procedure: (§2) Primary antibodies against Hsp70, Hsp90, Her2, and GAPDH were bought from Abcam (Cambridge, MA, USA). HRP (horseradish peroxidase) labeled anti-rabbit immunoglobulin G (H + L) secondary antibody was purchased from Abbkine (Redlands, CA, USA). MCF-7 cells were cultured as described above to a density of 10^6 cells per dish. […] Cells were washed with cold phosphate buffered saline (PBS, pH = 7.4) three times and lysed in radio immunoprecipitation assay (RIPA) lysate (containing 1% phenylmethanesulfonyl fluoride (PMSF)) on ice for 45 min. The lysates were collected and clarified at 12,000× g for 20 min at 4 °C using high speed refrigerated centrifuge. Protein concentration was determined by the bicinchoninic acid (BCA) protein assay kit. The protein sample (20 µg) was electrophoresed using 8% SDS-PAGE (sodium dodecyl sulfate- polyacrylamide gel electrophoresis), transferred to poly(vinylidene fluoride) (PVDF) membranes, and then blocked for 1 h in 5% skim milk in TBST (20 mM Tris-HCl pH 7.4, 100 mM NaCl, and 0.1% Tween 20). The membranes were immunoblotted with primary antibodies for 2 h at room temperature. After incubation with an HRP anti-rabbit IgG (H + L) (1:100,000) as a secondary antibody, the bands were detected using the ECL^TM Prime Western Blotting Detection System (ProteinSimple, San Jose, CA, USA). The density of proteins was determined using the AlphaView SA (Alpha Innotech Corp., version 3.4.0.0, San Leandro, CA, USA).

Hsp90 = test: Western blotting, Hsp90 expression in MCF-7 cells; type: cell-based, human; settings: 24 h; for expression of Hsp90: MCF-7 cells, compound at IC50 concentration
Procedure: as §2

Hsp70 = test: Western blotting, Hsp70 expression in MCF-7 cells; type: cell-based, human; settings: 24 h; for expression of Hsp70: MCF-7 cells, compound at IC50 concentration
Procedure: as §2

[1] = Homo sapiens, MCF7, Figure 3, mean ± SD, n = 3, read-out: anti-proliferative activity against MCF-7 cells (IC50), top 21 molecules from virtual screening
[2] = Homo sapiens, A549, 48-h post treatment
[3] = Homo sapiens, MCF7, MTT, 48-h post treatment, mean ± SD, three experiments, read-out: IC50 MCF-7
[4] = MCF-7 cells, compound at IC50 concentration
[5] = MCF-7 cells, 0, 5, 10, 20 and 40 µM

Compound	IC50 (A549 cells; [2]) [µM]	IC50 (MCF-7 cells; [3]) [µM]	other results
1,3-dibenzyl-2-(3-bromo-5-thiazolyl)-imidazolidine [Compound 4k]	–	–	IC50 (A549 cells; 48-h post treatment): 498.8 ± 0.25 µM; IC50 (MCF-7 cells; MTT, 48-h post treatment, mean ± SD, three experiments, read-out: IC50 MCF-7): 77.01 ± 0.01 µM
COc1ccc(-c2nnc(SCC(=O)N3CCOCC3)n2Cc2ccccc2)cc1 [Compound 1b]	–	–	IC50 (MCF-7 cells; [1]): 133.6 ± 1.13 µM
CCOC(=O)c1nnn(Cc2ccccc2Cl)c1NC(=O)CN1CCC(C)CC1 [Compound 1c]	–	–	IC50 (MCF-7 cells; [1]): 134 ± 0.42 µM
NC(=O)c1nnn(Cc2ccccc2)c1NC(=O)CSc1nnc(-c2ccco2)o1 [Compound 1d]	–	–	IC50 (MCF-7 cells; [1]): 243.3 ± 0.99 µM
O=C(Cn1c(-c2ccccn2)nc2ccccc21)NCCc1ccccc1 [Compound 2a]	–	–	IC50 (MCF-7 cells; [1]): 190.6 ± 1.41 µM
O=C(Cn1c(-c2ccccn2)nc2ccccc21)NCCCN1CCOCC1 [Compound 2b]	–	–	IC50 (MCF-7 cells; [1]): 310.5 ± 0.71 µM
COc1ccc(C(=O)/C=C/Nc2ccc(S(=O)(=O)Nc3ccc(OC)nn3)cc2)cc1 [Compound 3a]	–	–	IC50 (MCF-7 cells; [1]): 29.2 ± 0.34 µM
Cc1cc(NC(=O)CCS(=O)(=O)c2nc(-c3ccc4c(c3)OCO4)cc(C(F)(F)F)n2)no1 [Compound 3b]	–	–	IC50 (MCF-7 cells; [1]): 32.4 ± 0.55 µM
O=S(=O)(c1ccccc1)c1nc(-c2ccc(Cl)cc2)oc1NCCCN1CCOCC1 [Compound 3d]	–	–	IC50 (MCF-7 cells; [1]): 70.34 ± 0.2 µM
O=S(=O)(c1ccccc1)c1nc(-c2ccco2)oc1NCc1ccc(F)cc1 [Compound 3e]	–	–	IC50 (MCF-7 cells; [1]): 238 ± 0.71 µM
O=[N+]([O-])c1ccc(C2N(Cc3ccccc3)CCN2Cc2ccccc2)s1 [Compound 4a]	31.22 ± 0.31	21.6 ± 0.57	IC50 (human Hsp90α): 12 ± 10 nM; expression level of Her2 (Her2; [4]): significantly down-regulated; expression level of Her2 down-regulated to (Her2; [4]): 48%; expression of Hsp90 (Hsp90): slightly increased; expression of Hsp70 (Hsp70): significantly induced
Cc1ccc(O)c(C2N(Cc3ccccc3)CCN2Cc2ccccc2)c1 [Compound 4b]	88.58 ± 0.08	50.62 ± 0.26	IC50 (human Hsp90α): 612 ± 14 nM; expression level of Her2 (Her2; [4]): significantly down-regulated; expression of Hsp90 (Hsp90): slightly increased; expression of Hsp70 (Hsp70): significantly induced
c1ccc(CN2CCN(Cc3ccccc3)C2c2cccs2)cc1 [Compound 4c, 1,3-dibenzyl-2-thiophene-imidazolidine]	78.18 ± 0.15	80.04 ± 0.63	–
Clc1ccc(C2N(Cc3ccccc3)CCN2Cc2ccccc2)s1 [Compound 4d, 1,3-dibenzyl-2-(5-chlorothiophene)-imidazolidine]	56.3 ± 1.27	68.35 ± 0.44	IC50 (human Hsp90α): 672 ± 10 nM
Cc1ccc(C2N(Cc3ccccc3)CCN2Cc2ccccc2)s1 [Compound 4e, 1,3-dibenzyl-2-(5-Methylthiophene)-imidazolidine]	113 ± 1.41	119.3 ± 0.42	–
c1ccc(CN2CCN(Cc3ccccc3)C2c2cc3ccccc3s2)cc1 [Compound 4f, 1,3-dibenzyl-2-(1-benzothiophene)-imidazolidine]	136 ± 1.41	219.4 ± 0.57	–

Compound	IC50 (A549 cells; [2]) [µM]	IC50 (MCF-7 cells; [3]) [µM]	other results
O=[N+]([O-])c1ccccc1C1N(Cc2ccccc2)CCN1Cc1ccccc1 [Compound 4g, 1,3-dibenzyl-2-(2-nitro-phenyl)-imidazolidine]	40.6 ± 0.51	40.91 ± 0.05	–
O=[N+]([O-])c1ccc(C2N(Cc3ccccc3)CCN2Cc2ccccc2)cc1 [Compound 4h, 1,3-dibenzyl-2-(4-nitro-phenyl)-imidazolidine]	55.6 ± 0.49	117.7 ± 0.01	–
Fc1ccc(Cl)cc1C1N(Cc2ccccc2)CCN1Cc1ccccc1 [Compound 4i, 1,3-dibenzyl-2-(5-chloro-2-fluoro-phenyl)-imidazolidine]	59.3 ± 0.83	27.86 ± 0.01	IC50 (human Hsp90α): 610 ± 14 nM
Clc1ncc(C2N(Cc3ccccc3)CCN2Cc2ccccc2)s1 [Compound 4j, 1,3-dibenzyl-2-(2-chloro-5-thiazolyl)-imidazolidine]	35.3 ± 0.14	33.12 ± 0.23	IC50 (human Hsp90α): 310 ± 14 nM; expression level of Her2 regulated (Her2; [5]): concentration-dependent manner; expression level of Hsp90 regulated (Hsp90; [5]): concentration-dependent manner; expression level of Hsp70 regulated (Hsp70; [5]): concentration-dependent manner
Clc1ccc(C2N(Cc3ccccc3)CCN2Cc2ccccc2)c(Cl)n1 [Compound 4n]	52.11 ± 0.5	40.4 ± 0.51	IC50 (human Hsp90α): 102 ± 10 nM
Brc1cncc(C2N(Cc3ccccc3)CCN2Cc2ccccc2)c1 [Compound 4p]	72.87 ± 0.66	45.2 ± 0.63	–
c1ccc(CN2CCN(Cc3ccccc3)C2c2cncnc2)cc1 [Compound 4r]	80.8 ± 1	51.4 ± 0.54	–
c1ccc(N2CCN(c3ccccc3)C2c2ccco2)cc1 [Compound 6a]	123.4 ± 0.85	40.77 ± 0.39	–
Clc1ncc(C2N(c3ccccc3)CCN2c2ccccc2)s1 [Compound 6b]	172 ± 1.41	161.6 ± 0.57	–
Fc1ccc(Cl)cc1C1N(c2ccccc2)CCN1c1ccccc1 [Compound 6c]	46.14 ± 0.2	43.7 ± 1.03	IC50 (human Hsp90α): 1930 ± 13 nM
Clc1ccc(C2N(c3ccccc3)CCN2c2ccccc2)c(Cl)n1 [Compound 6d]	248.6 ± 0.57	323 ± 2.28	–
CCN1CCN(CC)C1c1ccnc(Cl)c1 [Compound 7a]	250.1 ± 1.27	> 500	–
CCN1CCN(CC)C1c1cc(Cl)ccc1F [Compound 7b]	164 ± 1.41	158.9 ± 0.14	–
CN1CCN(C)C1c1cc(Cl)ccc1F [Compound 8a]	149 ± 1.56	250.1 ± 0.27	–
C=CCNC1=C2CC(C)CC(OC)C(O)C(C)C=C(C)C(OC(N)=O)C(OC)C=CC=C(C)C(=O)NC(=CC1=O)C2=O (stereo not shown) [Compound 17-AAG, reference compound]	3.54 ± 0.08	7.18 ± 0.13	–

— publication PMC6600241, “Identification and Structure-Activity Studies of 1,3-Dibenzyl-2-aryl imidazolidines as Novel Hsp90 Inhibitors” (Molecules, 2019)
